Data on five molecules can be found in article PMC7878868, “Mechanisms of feedback inhibition and sequential firing of active sites in plant aspartate transcarbamoylase” (Nature Communications, 2021).

As usually defined, the Kd is a measure of binding affinity in units of concentration. The stoichiometry N is the number of molecules, sites or subunits per partner or assembly.

Where a chain is given by its changes, count along the chain named. Names and notes keep the numbering of the source. Values joined by “and” are separate entries in the source; they are usually repeats but may differ in a detail not shown here. Identical values can stand only once.

Series [1] deals with T1, atATC (Arabidopsis ATC aa 82–390) WT (Arabidopsis thaliana, UniProt P49077).
T1 construct: 2.6 kDa fusion tag (modified pET28a); made in house; host or cells: E. coli BLR(DE3)-pLysS
T1 sequence (P49077 82-390): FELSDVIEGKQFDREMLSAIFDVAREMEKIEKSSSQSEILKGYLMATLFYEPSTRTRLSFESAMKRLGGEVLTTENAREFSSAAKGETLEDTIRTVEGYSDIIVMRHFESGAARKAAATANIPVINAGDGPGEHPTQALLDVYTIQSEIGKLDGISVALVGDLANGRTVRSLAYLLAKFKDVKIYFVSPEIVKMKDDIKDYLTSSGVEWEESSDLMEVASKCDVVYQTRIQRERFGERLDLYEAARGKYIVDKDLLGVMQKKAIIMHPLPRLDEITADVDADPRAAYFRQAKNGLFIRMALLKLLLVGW
The series is described as follows: Isothermal titration calorimetry (ITC), atATC WT. The format is binding. As to conditions: site 1. The method, then: (§1) Experiments were performed in an Auto-iTC200 calorimeter (MicroCal, Malvern-Panalytical) at 25 °C with a 0.2 ml reaction cell and 30–40 µM protein solution (in protomer units) in the cell. […] All solutions were in GF buffer and degassed and mixed in the cell by stirring at 750 rpm. Data analysis was performed with Origin 7 (OriginLab) using a general three-site cooperative and a non-cooperative binding model, restricted to one or two ligand binding sites when convenient[24],[62],[63]. Non-linear least-squares regression analysis was employed to estimate dissociation constants for the interaction of the different ligands with ATC.
Background: ITC needs no label: the signal is the heat of the interaction.

The target of series [2] is T2, atATC-F161A (Arabidopsis thaliana, UniProt P49077, F161A).
T2 construct: 2.6 kDa fusion tag (modified pET28a); made in house; host or cells: E. coli BLR(DE3)-pLysS
T2 sequence (P49077 82-390 F161A): T1 sequence (P49077 82-390) with F80A
The series is described as follows: biochemical. The format is binding. How it is done:
as §1

In another series the target is T3, atATC WT (Arabidopsis thaliana, UniProt P49077).
T3 construct: 2.6 kDa fusion tag (modified pET28a); made in house; host or cells: E. coli BLR(DE3)-pLysS
T3 sequence (P49077 82-390): T1 sequence (P49077 82-390)
As to the kind of experiment: Colorimetric ATC activity assay, atATC WT. Format: biochemical. The following applies: 10 mM Asp. The method, then:
(§2) Activity was assayed by a colorimetric method[64] adapted to a 96-well plate format. […] Reagent B is light sensitive and was stored at 4 °C in the dark. The color reagents were gently mixed and stored at 4 °C in the dark until added to the sample. Reaction tubes were closed, boiled at 95 °C for 15 min, and kept in the dark for 30 min before measuring the absorbance at 450 nm in a Tecan infinite m200 microplate reader (Tecan). […] Data analysis was done with GraphPad. […] Protein concentration in the assay was 0.3 µM (0.01 mg ml^−1) both for WT and F161A.

The target in series [3] is T2, atATC-F161A. As to the kind of experiment: Colorimetric ATC activity assay, atATC F161A. The following applies: for Activity F161A: 10 mM Asp. The format is biochemical. How it is done:
as §2

The test system of a further series is Arabidopsis seedlings. The series is described as follows: Seedling assay in liquid culture with PALA (fresh weight, root length). The format is in vivo, Arabidopsis thaliana. The following applies: for fresh weight compared to untreated seedlings / root length relative to untreated seedlings / root length, average: 7 days; for fresh weight compared to untreated seedlings: n = 3 (3 times 10 seedlings); for root length relative to untreated seedlings / root length, average: n = 30; for root length, average: untreated 2.68 ± 0.49 cm; for Freshweight, single replicates (10 seedlings): source data of Figure 3a; for Freshweight, average (10 seedlings): 0 mM PALA 0.1699 g. How it is done:
For DNA isolation, tissue collection and phenotypic inspection, wild-type Col-0 and transgenic Arabidopsis thaliana (L.) Heynh. plants (ecotype Columbia) were used throughout. Plants were grown in standardized soil (ED73 Einheitserde, Humuswerke Patzer) soil under long day conditions (120 μmol quanta m^−2 s^−1 in a […] regime, temperature 22 °C, humidity 60%). Prior to germination, seeds were incubated for 24 h in the dark at 4 °C for imbibition. […] The liquid cultures were maintained on a shaker at 100 rpm under the same light and temperature conditions as soil-grown plants. Leaf extract of wild-type and mutants was prepared by homogenizing leaf material in extraction buffer (50 mM HEPES-KOH pH 7.2, 5 mM MgCl2, 2 mM phenylmethylsulfonyl fluoride (PMSF) on ice. The homogenous extract was centrifuged at 20,000g for 10 min at 4 °C. The supernatant was collected and stored on ice until use.

Another series relates to plant ATCs. Also noted: method as in PMID 14479231, doi:10.1093/jxb/40.10.1121. As to conditions: cited from earlier work.
Substrate in series [4]: NC(=O)OP(=O)(O)O
As to the kind of experiment: purified protein, by the assay type. The following applies: other: WT, CP variable, 10 mM Asp, absence of UMP; pH 8.3.

Series [5] deals with the molecule itself. The series is described as follows: SEC-MALS; 400 ul of purified protein at 1.4 mg/ml on Superdex 200 10/300 in GF buffer (20 mM Tris pH 7.0, 0.1 M NaCl, 2% glycerol, 0.2 mM TCEP), 0.5 ml/min; self-association: homotrimer. (In general: SEC sorts molecules by how far they enter the pores of the column.)
Substrate in series [6]: NC(=O)OP(=O)(O)O
As to the kind of experiment: Colorimetric ATC activity assay, atATC F161A. The format is biochemical, Arabidopsis thaliana. The following applies: other: F161A, CP variable, 10 mM Asp; pH 8.3.

Series [7] concerns the molecule itself. As to the kind of experiment: crystal structure; X-ray crystal structures of the trimer (with UMP, apo, with PALA, with PALA + CP, with CP; F161A with UMP or PALA); sitting-drop vapor diffusion at room temperature, PEG 3350 conditions, data at 100 K.

As to `O=C(O)C[C@H](NC(=O)CP(=O)(O)O)C(=O)O` [PALA, N-(phosphonacetyl)-L-aspartate], the “-TΔS Site 1” value in [1] (ITC) is -90.4 kJ/mol; on atATC-F161A [2] (ITC, F161A, site 1) it was -85.4 kJ/mol. The “ΔG Site 1” value in [1] (ITC) was -35.6 kJ/mol; at atATC-F161A [2] (ITC, F161A, site 1), -39.3 kJ/mol. Moreover, the “ΔH Site 1” value in series [1] (ITC) stood at 54.8 kJ/mol; on atATC-F161A [2] (ITC, F161A, site 1) it was 46 kJ/mol. For the same molecule, the Kd in series [1] (KD Site 1, ITC, 25 °C) was 0.59 µM and 0.6 µM; on atATC-F161A [2] it was 0.12 µM. Besides, the “N, number of binding sites per protein trimer according to the ligand binding model” value on atATC-F161A [2] (ITC, F161A) was determined as 1. Besides, the “fold higher affinity of F161A than WT” value on atATC-F161A [2] (ITC, F161A versus WT) worked out at 5 fold. In addition, the “Activity WT” value at atATC WT (0.01 mM PALA, [CP] 0.16 mM) was 17.11 nmol / min μg and 10.69 nmol / min μg and 14.77 nmol / min μg; on atATC WT (0.01 mM PALA, [CP] 0.31 mM), 20.84 nmol / min μg and 20.81 nmol / min μg and 18.28 nmol / min μg; at atATC WT (0.01 mM PALA, [CP] 0.63 mM) it was 27.62 nmol / min μg and 26.91 nmol / min μg and 26.59 nmol / min μg; on atATC WT (0.01 mM PALA, [CP] 1.25 mM), 40.50 nmol / min μg and 40.46 nmol / min μg and 40.29 nmol / min μg; on atATC WT (0.01 mM PALA, [CP] 2.50 mM) it was 50.62 nmol / min μg and 53.39 nmol / min μg and 49.84 nmol / min μg; on atATC WT (0.01 mM PALA, [CP] 5.00 mM), 66.15 nmol / min μg and 65.77 nmol / min μg and 55.96 nmol / min μg. Further, the “Activity WT” value at atATC WT (0.1 mM PALA, [CP] 0.31 mM) was 4.77 nmol / min μg and 4.92 nmol / min μg and 5.38 nmol / min μg; at atATC WT (0.1 mM PALA, [CP] 0.63 mM), 10.55 nmol / min μg and 10.43 nmol / min μg and 10.56 nmol / min μg; at atATC WT (0.1 mM PALA, [CP] 1.25 mM) it was 19.60 nmol / min μg and 18.57 nmol / min μg and 27.14 nmol / min μg; on atATC WT (0.1 mM PALA, [CP] 2.50 mM), 27.12 nmol / min μg and 29.01 nmol / min μg and 31.29 nmol / min μg; at atATC WT (0.1 mM PALA, [CP] 5.00 mM) it was 33.74 nmol / min μg and 33.21 nmol / min μg. Besides, the “Activity F161A” value is 4.41 nmol / min μg and 6.29 nmol / min μg and 5.34 nmol / min μg at atATC-F161A [3] (0.01 mM PALA, [CP] 0.15 mM); 5.13 nmol / min μg and 6.44 nmol / min μg and 9.47 nmol / min μg at atATC-F161A [3] (0.01 mM PALA, [CP] 0.31 mM); 25.34 nmol / min μg and 31.98 nmol / min μg and 21.75 nmol / min μg at atATC-F161A [3] (0.01 mM PALA, [CP] 0.63 mM); 39.80 nmol / min μg and 37.97 nmol / min μg and 40.98 nmol / min μg on atATC-F161A [3] (0.01 mM PALA, [CP] 1.25 mM); 38.56 nmol / min μg and 36.28 nmol / min μg and 37.57 nmol / min μg on atATC-F161A [3] (0.01 mM PALA, [CP] 2.50 mM); 11.15 nmol / min μg and 10.75 nmol / min μg and 7.03 nmol / min μg on atATC-F161A [3] (0.1 mM PALA, [CP] 1.25 mM). At atATC-F161A [3] (0.1 mM PALA, [CP] 2.50 mM), the “Activity F161A” value was 5.52 nmol / min μg and 9.09 nmol / min μg and 9.11 nmol / min μg. Further, the “sensitivity of enzyme activity to PALA compared to WT” value on atATC-F161A [3] (F161A) is listed as “more sensitive”. The “fresh weight compared to untreated seedlings” value in the series with Arabidopsis seedlings (0.2 mM PALA) was found to be 59%; in the series on Arabidopsis seedlings (0.4 mM PALA) it was 23%. Further, the results for the “root length relative to untreated seedlings” value with Arabidopsis seedlings (0.2 mM PALA) and with Arabidopsis seedlings (0.4 mM PALA) were 36% and 8%, respectively. Further, the “root length, average” value in the series with Arabidopsis seedlings (0.2 mM PALA) is 0.96 ± 0.22 cm and 0.962 cm; in the series on Arabidopsis seedlings (0.4 mM PALA) it was 0.21 ± 0.09 cm and 0.213 cm. The “Freshweight, single replicates (10 seedlings)” value was 0.1006 g and 0.0950 g and 0.1032 g with Arabidopsis seedlings (0.2 mM PALA); 0.0435 g and 0.0329 g and 0.0417 g in the series with Arabidopsis seedlings (0.4 mM PALA). The “Freshweight, average (10 seedlings)” value in the series on Arabidopsis seedlings (0.2 mM PALA) amounted to 0.0996 g; in the series on Arabidopsis seedlings (0.4 mM PALA), 0.0394 g. Further, in the series on Arabidopsis seedlings (PALA-treated seedlings), the chlorosis of seedlings entry is recorded as “Chlorosis was also apparent”.

As to `O=c1ccn([C@@H]2O[C@H](COP(=O)(O)OP(=O)(O)O)[C@@H](O)[C@H]2O)c(=O)[nH]1` [UDP], the “inhibition of plant ATCs” value in the series on plant ATCs is recorded as “not inhibitors”.

For `O=c1ccn([C@@H]2O[C@H](COP(=O)(O)OP(=O)(O)OP(=O)(O)O)[C@@H](O)[C@H]2O)c(=O)[nH]1` [UTP], the “inhibition of plant ATCs” value with plant ATCs was “not inhibitors”.

B1: Arabidopsis aspartate transcarbamoylase, construct spanning aa 82-390 (atATC) (enzyme, Arabidopsis thaliana, UniProt P49077 82-390, looked up)
chain: T1 sequence (P49077 82-390)
notes: Aspartate transcarbamoylase (ATC; pyrB; At3g20330) of Arabidopsis thaliana, aa 82-390 of the 390 aa precursor protein with an N-terminal chloroplast transit peptide; amplified from cDNA; No cleavage of the tag is described, and the text speaks of the size of purified atATC 'excluding the 2.6 kDa fusion tag', so the tag was probably kept; It is probably a His tag (Ni-sepharose purification); The …
Take B1: in series [4], the K0.5 is 0.46 ± 0.10 mM. For the same molecule, the “stoichiometry N” value in series [5] is 3.

B2: atATC mutant F161A (enzyme, Arabidopsis thaliana, UniProt P49077 82-390, looked up)
chain: T1 sequence (P49077 82-390) with F80A
notes: Aspartate transcarbamoylase (ATC; pyrB; At3g20330) of Arabidopsis thaliana, aa 82-390 of the 390 aa precursor protein, with F161 replaced by Ala; Made by site-directed mutagenesis of the atATC construct; same tag and purification as m1; also called atATC-F161A; source: E. coli BLR(DE3)-pLysS, purified (Ni-sepharose, size-exclusion chromatography on Superdex 75); not shown: fusion tag (2.6 kDa)
Consider B2, for which, in series [6], the K0.5 is 0.62 ± 0.13 mM. The binding result in series [7] is reported as “binds”.
